Measured values reported in patent US11579147B2, “Use of VNN1 as a biomarker and a therapeutic target in sarcomas” (INSERM (Institut National de la Santé et de la Recherche …, priority 2017, dated 2023).
Entries after “also recorded” stand apart in the source; their conditions may differ.

What was measured:
[1] = system: myofibroblast cell lines (J2A, H1 or I1); assay: in vitro growth of Ras-transfected myofibroblast cell lines; format: cell-based, mouse; conditions: data not shown
From the text: Given the slow rate of tumor development and the rare emergence of STS in Vnn1+/+ mice, we developed new transplantable STS models. The different tumors derived from three independent myofibroblast cell lines (J2A, H1 or I1) were subcutaneously grafted in Nude mice. […] Since pantetheinase activity releases pantothenate and cysteamine in vivo, we tested the effect of these compounds on in vitro and in vivo growth.

CoA levels = assay: coenzyme A levels in tumors; format: in vivo; conditions: administration to mice bearing R tumors
From the text: (§1) Since pantetheinase hydrolyses pantetheine into pantothenate and cysteamine, we searched for more specific actions. We first focused on pantothenate which could be detected by LC-MS analysis. […] Accordingly, we found some significant variations in the levels of various metabolites involved in the regulation of the TCA cycle.

GSH levels = GSH levels in tumor tissue extracts; format: in vivo; conditions: administration to tumor-bearing mice, data not shown
From the text: as §1

[2] = system: Ras expressing tumors (R); assay: growth of tumors subcutaneously grafted in Nude mice; format: in vivo; conditions: administered to grafted mice, FIG. 4
From the text: The different tumors derived from three independent myofibroblast cell lines (J2A, H1 or I1) were subcutaneously grafted in Nude mice. […] Since pantetheinase activity releases pantothenate and cysteamine in vivo, we tested the effect of these compounds on in vitro and in vivo growth.

[3] = system: collagen I or caveolin I genes; assay: qRT-PCR of differentiation genes in enriched tumor cells depleted of CD45+ cells; format: in vivo, mice; conditions: cysteamine-treated R tumor cells
From the text: We then performed a similar analysis using RNA extracted from enriched R, cysteamine-treated R and VR tumor cells depleted of CD45+ hematopoietic cells. […] Therefore, Vnn1 expression is associated with a differentiated grade of tumors which is not recapitulated by CEA administration.

[4] = system: various metabolites analyzed by LC-MS; assay: LC-MS analysis of tumor metabolites; format: in vivo; conditions: administration to tumor-bearing mice
From the text: as §1

CoA levels in tumors (CoA levels) | Structure (SMILES) | growth of cell lines in vitro [1] | GSH levels in tissue extracts (GSH levels) | tumor growth in grafted mice [2] | expression of collagen I or caveolin I genes [3] | impact on the various metabolites analyzed by LC-MS [4]
only moderately enhanced | NCCS [cysteamine, 2-aminoethanethiol] | reduced the growth of all cell lines | reduction in GSH levels | inhibits tumor growth; also recorded: reduced the growth | not able to induce the expression | could not detect a significant impact
– | CC(C)(CO)[C@@H](O)C(=O)NCCC(=O)O [pantothenate, 3-[(2R)-(2,4-Dihydroxy-3,3-dimethylbutanoyl)amino]propanoic acid] | no effect | – | – | – | –
